Laboratory results: patent US7902384B2, “Estrogenic-active compounds and application thereof” (National Taiwan University, priority 2008, dated 2011)
Where “and” joins values, the source holds several entries; their conditions need not be identical. Equal values may be shown once.

Columns and labels:
GAL4-hERα [1] = molecular target: T1, GAL4-hERα (Homo sapiens, UniProt P03372); assay: Estrogenic activity assay: GAL4-hERα LBD / (UAS)4-ALP reporter in transfected CHO-k1 cells, single addition of sample; assay type: cell-based; set-up: expressed in transfected cells; host or cells: CHO-k1 (Chinese hamster cells); details: for EC50: read-out: EC50 for ERα (converted)
T1 sequence (P03372 311-547 limits assumed): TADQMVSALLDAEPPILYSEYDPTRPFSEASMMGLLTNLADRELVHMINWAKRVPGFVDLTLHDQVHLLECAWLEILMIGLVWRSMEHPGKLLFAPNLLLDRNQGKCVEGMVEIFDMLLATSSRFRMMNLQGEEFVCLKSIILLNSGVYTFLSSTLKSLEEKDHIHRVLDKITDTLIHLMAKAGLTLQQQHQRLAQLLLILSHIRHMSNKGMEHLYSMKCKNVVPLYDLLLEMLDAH
Excerpt: (§1) First, a method for assessing the estrogenic activity in the field samples was established. This method comprises: preparing a cell line transfected with plasmids which can screen estrogenic activity substances. […] The reporter gene in the plasmid was expressed when the sample to be assayed contains estrogenic activity. Among them, the samples to be assayed in the examples of the invention include Loliolide, (4S,6S)-4-Hydroxy-6-nonadecyl-tetrahydro-pyran-2-one, (4R,6S)-4-Hydroxy-6-nonadecyl-tetrahydro-pyran-2-one. […] The details of establishing the assessing method are described as follows: […]

GAL4-hERβ [2] = molecular target: T2, GAL4-hERβ (Homo sapiens, UniProt Q92731); assay: Estrogenic activity assay with co-addition of 1 nM 17β-estradiol (antagonism or synergistic agonism), GAL4-hERβ reporter in CHO-k1 cells; details: co-added with 1 nM 17β-estradiol, vs single addition of estrogen, p<0.05
T2 sequence (Q92731 264-498 limits assumed): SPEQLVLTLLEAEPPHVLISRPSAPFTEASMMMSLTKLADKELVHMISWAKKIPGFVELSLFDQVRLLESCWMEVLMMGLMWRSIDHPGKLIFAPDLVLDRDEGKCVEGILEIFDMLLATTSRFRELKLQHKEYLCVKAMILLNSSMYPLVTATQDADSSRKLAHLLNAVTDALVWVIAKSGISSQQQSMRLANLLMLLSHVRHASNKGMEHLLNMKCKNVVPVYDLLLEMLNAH
Excerpt: (§2) Plasmid pBKCMV containing GAL4hERα (or ERβ) ligand binding domain (LBD) chimeric receptors and plasmid containing (UAS)4-alkaline phosphatase (ALP) reporter gene were co-transfected into Chinese hamster cells (CHO-k1). Compounds with estrogenic activity would interact with estrogen-specific ER to induce the binding of GAL4 and upstream activation sequence (UAS) specifically to initiate the expression of ALP gene. Therefore, the ALP activity can be used to determine whether the samples to be assayed have the estrogenic activity.
(§3) Cells in high confluence were plated onto 96-well culture plate the day before transfection. The plate was then washed to remove the serum during the day of transfection, followed by addition of two plasmid DNA, GAL4-hERα and (UAS)4-ALP in the ratio of 5:1, or GAL4-hERβ and (UAS)4-ALP in the ratio of 4:1, together with Lipofectamine™ 2000 transfection agent and culture medium to form DNA-liposome complex for 5 h.
(§4) The sample to be assayed was added into the medium of transfected cells and cultivated for 2 days.

GAL4-hERα [3] = molecular target: T1, GAL4-hERα; assay: Estrogenic activity assay with co-addition of 1 nM 17β-estradiol (antagonism or synergistic agonism), GAL4-hERα reporter in CHO-k1 cells; details: co-added with 1 nM 17β-estradiol, vs single addition of estrogen, p<0.05
Excerpt: as §2, §3, §4

GAL4-hERβ [4] = molecular target: T2, GAL4-hERβ; assay: Estrogenic activity assay: GAL4-hERβ LBD / (UAS)4-ALP reporter in transfected CHO-k1 cells, single addition of sample; assay type: cell-based; set-up: expressed in transfected cells; host or cells: CHO-k1 (Chinese hamster cells); details: for EC50: read-out: EC50 for ERβ (converted); for ERβ versus ERα selectivity of activation: comparison of ERα and ERβ reporter activation
Excerpt: as §1

[5] = ALP reporter, CHO-k1, single addition

Row | concentration at which maximal activation of ERα activity was achieved (GAL4-hERα [1]) [µg/mL] | EC50 (GAL4-hERα [1]) [µM] | concentration at which activation of ERβ due to estrogen was significantly decreased (GAL4-hERβ [2]) | concentration at which activation of ERα due to estrogen was significantly decreased (GAL4-hERα [3]) | concentration at which maximal activation of ERβ activity was achieved (GAL4-hERβ [4]; [5]) [µg/mL] | EC50 (GAL4-hERβ [4]; [5]) | ERβ versus ERα selectivity of activation (GAL4-hERβ [4]) | concentration at which maximal activation of the estrogenic activity was achieved (ERα) (GAL4-hERα [1]) [µM] | concentration at which maximal activation of the estrogenic activity was achieved (ERβ) (GAL4-hERβ [4]; [5]) [µM] | Structure (SMILES)
1 | 10 | 16.2 | 2 µg/mL | 1 µg/mL | 10 | 4.68 µM | better activation efficiency in ERβ | – | – | CCCCCCCCCCCCCCCCCCC[C@H]1C[C@H](O)CC(=O)O1 [(4S,6S)-4-Hydroxy-6-nonadecyl-tetrahydro-pyran-2-one]
2 | 20 | 54.2 | 204 µM | 10.1 µM | 20 | 17.9 µM and 18 µM | better activation efficiency in ERβ | 102.0 | 102.0 | CC1(C)C[C@H](O)C[C@@]2(C)OC(=O)C=C12 [Loliolide]
3 | 20 | – | 2 µg/mL | 2 µg/mL | 10 | 8.94 µM | better activation efficiency in ERβ | – | – | CCCCCCCCCCCCCCCCCCC[C@H]1C[C@@H](O)CC(=O)O1 [(4R,6S)-4-Hydroxy-6-nonadecyl-tetrahydro-pyran-2-one]
